This is an account of results in paper PMC10583239 (CPT: Pharmacometrics & Systems Pharmacology, 2023).

The Cmax is the maximum level reached in the sampled fluid or tissue.

This data set is described as follows: Clinical DDI cohort: midazolam with pomotrelvir 1050 mg b.i.d.
Setting [1] is: midazolam + pomotrelvir 1050 mg twice daily, Day 6.
Setting [2] is: midazolam + pomotrelvir 1050 mg twice daily, Day 11.
[3] abbreviates: 1 mg midazolam alone, Day 1, N = 8.

For `Cc1ncc2n1-c1ccc(Cl)cc1C(c1ccccc1F)=NC2` [Midazolam, midazolam, reference compound], for the setting “Day 6 vs Day 1”, the “AUCinf geometric mean ratio (MDZ + POMO)/(MDZ)” value (shortened to “AUCinf geometric mean ratio”) is 1.48, the “AUClast geometric mean ratio (MDZ + POMO)/(MDZ)” value (shortened to “AUClast geometric mean ratio”) was 1.51 and the “Cmax geometric mean ratio (MDZ + POMO)/(MDZ)” value (“Cmax geometric mean ratio” below) stood at 1.09. Further, under “Day 11 vs Day 1”, the “AUCinf geometric mean ratio” value was found to be 1.33, the “AUClast geometric mean ratio” value was determined as 1.36 and the “Cmax geometric mean ratio” value is recorded as 1.09. The same compound gave a Cmax (both, human, plasma, oral, 1 mg) of 4.06 ng/mL. In addition, under setting [1], the Cmax geometric mean was 4.44 ng/mL. Moreover, the Cmax geometric mean under setting [2] is on record as 4.44 ng/mL.
Under setting [3], `OCc1ncc2n1-c1ccc(Cl)cc1C(c1ccccc1F)=NC2` [1‐OH‐midazolam, 1‐hydroxy‐midazolam] displayed an AUCinf geometric mean of 4.76 ng·h/mL, an AUClast geometric mean of 4.72 ng·h/mL and a Cmax geometric mean of 1.36 ng/mL. Further, for the setting “Day 6 vs Day 1”, the “AUCinf geometric mean ratio” value was 0.65, the “AUClast geometric mean ratio” value came to 0.62 and the “Cmax geometric mean ratio” value is recorded as 0.53. For the same compound, under “Day 11 vs Day 1”, the “AUCinf geometric mean ratio” value came to 0.56, the “AUClast geometric mean ratio” value was determined as 0.56 and the “Cmax geometric mean ratio” value amounted to 0.58. Moreover, under setting [1], the AUCinf geometric mean is 3.09 ng·h/mL, the AUClast geometric mean turned out to be 2.87 ng·h/mL and the Cmax geometric mean was found to be 0.73 ng/mL. Under setting [2], the AUCinf geometric mean is 2.66 ng·h/mL, the AUClast geometric mean was determined as 2.64 ng·h/mL and the Cmax geometric mean is reported as 0.8 ng/mL.
